Here are results for one compound from patent US8044071B2, “Method for reducing side effects of CB2 receptor agonist therapy using a combination of a selective CB2 receptor agonist and a selective CB1 receptor antagonist” (Abbott Laboratories, priority 2007, dated 2011).

This test concerns skin incision model of postoperative pain. The experiment in a line: Skin incision model of postoperative pain (tactile allodynia, von Frey). The format is in vivo. Particulars: rat, rimonabant 30 μmol/kg i.p., vehicle 15 min later. The text has this:
Adult male Sprague-Dawley rats (250-300 g body weight, Charles River Laboratories, Portage, Mich.) were used. Animal handling and experimental protocols were approved by the Institutional Animal Care and Use Committee (IACUC) at Abbott Laboratories. For all surgical procedures, animals were maintained under halothane anesthesia (4% to induce, 2% to maintain), and the incision sites were sterilized using a 10% povidone-iodine solution prior to and after surgeries.
A skin incision model of postoperative pain was produced using the procedures described in Brennan et al., 1996, Pain, 64, 493. All rats were anesthetized with isoflurane delivered via a nose cone. Right hind paw incision was performed following sterilization procedures. The plantar aspect of the […] hind paw was placed through a hole in a sterile plastic drape. A 1-cm longitudinal incision was made through the skin and fascia of the plantar aspect of the hind paw, starting 0.5 cm from the proximal edge of the heel and extending towards the toes, the plantar muscle was elevated and incised longitudinally leaving the muscle origin and insertion points intact. The skin was then closed with two mattress sutures (5-0 nylon). After surgery, animals were then allowed to recover for 2 hours, at which time tactile allodynia was assessed as described below. To evaluate the anti-nociceptive effects, animals were i.p. administered vehicle or test compound 90 minutes following skin incision and tactile allodynia was typically assessed 30 minutes after compound administration.
Tactile allodynia was measured using calibrated von Frey filaments (Stoelting, Wood Dale, Ill.) as described in Chaplan, S. R., F. W. Bach, J. W. Porgrel, J. M. Chung and T. L. Yaksh, 1994, Quantitative assessment of tactile allodynia in the rat paw, J. Neurosci. Methods, 53, 55. Rats were placed into inverted individual plastic cage (20×12.5×20 cm) on top of a suspended wire mesh grid, and acclimated to the test chambers for 20 minutes. The von Frey filaments were applied perpendicularly from underneath the cage through openings in the wire mesh floor directly to an area within 1-3 mm (immediately adjacent) of the incision, and then held in this position for approximately 8 seconds with enough force to cause a slight bend in the filament. Positive responses included an abrupt withdrawal of the hind paw from the stimulus, or flinching behavior immediately following removal of the stimulus. A 50% withdrawal threshold was determined using an up-down procedure as described in Dixon, W. J., 1980, Efficient analysis of experimental observations, Ann. Rev. Pharmacol. Toxicol., 20, 441. The effect on paw withdrawal latency of test compounds compared to vehicle control represents the ability of the test compound to reduce allodynia. An increase in the paw withdrawal latency represents an anti-allodynic effect (i.e., a decrease in pain).
Using the skin incisional model of postoperative pain, the effects of compound A, CB2 agonist (Z)—N-(5-tert-butyl-3-butylthiazol-2(3H)-ylidene)-5-chloro-2-methoxybenzamide, on allodynia was assessed two hours after surgery.
Using the skin incisional model of postoperative pain, the effects of CB2 agonist A were evaluated after the administration of vehicle or the CB1 antagonist rimonabant. This effect was compared with the administration of vehicle after the administration of vehicle or the CB1 antagonist rimonabant. A first dose, consisting of CB1 antagonist rimonabant (30 μmol/kg i.p.) or a vehicle (5% DMSO/PEG), was administered 15 minutes before a second dose, consisting of administration of CB2 agonist A (30 μmol/kg i.p.) or vehicle. Allodynia testing was conducted 30 minutes after administration of the second dose, either CB2 agonist A or vehicle.

With `Cc1c(C(=O)NN2CCCCC2)nn(-c2ccc(Cl)cc2Cl)c1-c1ccc(Cl)cc1` [rimonabant, 5-(4-chlorophenyl)-1-(2,4-dichlorophenyl)-4-methyl-N-(piperidin-1-yl)-1H-pyrazole-3-carboxamide, reference compound], the “tactile allodynia, rimonabant followed by vehicle” value is listed as “did not ameliorate the tactile allodynia”.
